This assay concerns the target T1, PLK1 (Homo sapiens, UniProt P53350).
T1 construct: endogenous in cells; host or cells: HeLa
As to the kind of experiment: PLK1 protein degradation in HeLa cells, Western blotting (PLK1/GAPDH ratio). Type of assay: cell-based. As to conditions: 6 hours compound incubation; for DC50: measured only if the grade of Dmax is A or B; for Dmax: thymidine block and release, 10 points three-fold from 3 μM, PLK1 to GAPDH ratio, read-out: Dmax. The method in brief:
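Thymidine-synchronised HeLa cells (2 mM, 24 h) released 4 h into complete medium, then treated 6 h with compound in 10-point 3-fold dilutions from 3 μM. RIPA lysates (15 μg protein) run on SDS-PAGE; PLK1 Western blot normalised to GAPDH.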

As a reminder, the DC50 is the concentration at which degradation of the target reaches its halfway point. Broadly, the Dmax is the largest share of the target that was removed.

T1 sequence (P53350 whole entry): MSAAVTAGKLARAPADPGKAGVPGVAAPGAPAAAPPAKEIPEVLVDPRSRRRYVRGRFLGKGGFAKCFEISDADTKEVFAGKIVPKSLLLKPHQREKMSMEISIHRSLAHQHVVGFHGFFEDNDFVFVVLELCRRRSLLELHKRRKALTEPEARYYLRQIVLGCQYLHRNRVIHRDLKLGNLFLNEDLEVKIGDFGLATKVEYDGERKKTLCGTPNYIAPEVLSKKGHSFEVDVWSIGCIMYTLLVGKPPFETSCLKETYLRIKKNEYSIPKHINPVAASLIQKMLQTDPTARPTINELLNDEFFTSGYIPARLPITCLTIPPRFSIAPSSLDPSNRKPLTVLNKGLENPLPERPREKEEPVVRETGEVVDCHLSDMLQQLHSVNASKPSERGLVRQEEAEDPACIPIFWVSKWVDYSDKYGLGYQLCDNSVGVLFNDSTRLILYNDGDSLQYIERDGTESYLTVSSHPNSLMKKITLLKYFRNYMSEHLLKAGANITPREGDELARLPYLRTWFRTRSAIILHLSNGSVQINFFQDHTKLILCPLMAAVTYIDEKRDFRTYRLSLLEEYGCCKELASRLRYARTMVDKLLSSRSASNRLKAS

As to `COc1cc(C(=O)N[C@H]2CCN(C(=O)CCCCCNc3cccc4c3C(=O)N(C3CCC(=O)NC3=O)C4=O)C2)c(F)cc1Nc1ncc2c(n1)N(C1CCCC1)CC(F)(F)C(=O)N2C` (stereo partly drawn) [Compound 119, 4-((9-cyclopentyl-7,7-difluoro-5-methyl-6-oxo-6,7,8,9-tetrahydro-5H-pyrimido[4,5-b][1,4]diazepin-2-yl)amino)-N-((3S)-1-(6-((2-(2,6-dioxopiperidin-3-yl)-1,3-dioxoisoindolin-4-yl)amino)hexanoyl)pyrrolidin-3-yl)-2-fluoro-5-methoxybenzamide], the DC50 is no more than 50 nM and the Dmax was no less than 80%.
As for `COc1cc(C(=O)N[C@@H]2CCN(C(=O)CCCCCNc3cccc4c3C(=O)N(C3CCC(=O)NC3=O)C4=O)C2)c(F)cc1Nc1ncc2c(n1)N(C1CCCC1)CC(F)(F)C(=O)N2C` (stereo partly drawn) [Compound 120, 4-((9-cyclopentyl-7,7-difluoro-5-methyl-6-oxo-6,7,8,9-tetrahydro-5H-pyrimido[4,5-b][1,4]diazepin-2-yl)amino)-N-((3R)-1-(6-((2-(2,6-dioxopiperidin-3-yl)-1,3-dioxoisoindolin-4-yl)amino)hexanoyl)pyrrolidin-3-yl)-2-fluoro-5-methoxybenzamide], the half-maximal degradation concentration (DC50) was no more than 50 nM and the Dmax is no less than 80%.
The matching figures for `COc1cc(C(=O)N[C@H]2CCN(CC(=O)NCCOCCNc3cccc4c3C(=O)N(C3CCC(=O)NC3=O)C4=O)C2)c(F)cc1Nc1ncc2c(n1)N(C1CCCC1)CC(F)(F)C(=O)N2C` (stereo partly drawn) [Compound 121, 4-((9-cyclopentyl-7,7-difluoro-5-methyl-6-oxo-6,7,8,9-tetrahydro-5H-pyrimido[4,5-b][1,4]diazepin-2-yl)amino)-N-((3S)-1-(2-((2-(2-((2-(2,6-dioxopiperidin-3-yl)-1,3-dioxoisoindolin-4-yl)amino)ethoxy)ethyl)amino)-2-oxoethyl)pyrrolidin-3-yl)-2-fluoro-5-methoxybenzamide]: no more than 50 nM and no less than 80%.
Turning to `COc1cc(C(=O)N[C@H]2CCN(CC(=O)NCCCNc3cccc4c3C(=O)N(C3CCC(=O)NC3=O)C4=O)C2)c(F)cc1Nc1ncc2c(n1)N(C1CCCC1)CC(F)(F)C(=O)N2C` (some centres unmarked) [Compound 122], the DC50 is no more than 50 nM and the maximal degradation (Dmax) is no less than 80%.
As to `COc1cc(C(=O)NC2CN(CCOCCOCCNc3cccc4c3C(=O)N(C3CCC(=O)NC3=O)C4=O)C2)c(F)cc1Nc1ncc2c(n1)N(C1CCCC1)CC(F)(F)C(=O)N2C` (centres unmarked) [Compound 123, 4-((9-cyclopentyl-7,7-difluoro-5-methyl-6-oxo-6,7,8,9-tetrahydro-5H-pyrimido[4,5-b][1,4]diazepin-2-yl)amino)-N-(1-(2-(2-(2-((2-(2,6-dioxopiperidin-3-yl)-1,3-dioxoisoindolin-4-yl)amino)ethoxy)ethoxy)ethyl)azetidin-3-yl)-2-fluoro-5-methoxybenzamide], the DC50 is no more than 50 nM and the greatest degradation seen (Dmax) is no less than 80%.
In the case of `COc1cc(C(=O)NCC2CCCN2CCOCCNc2cccc3c2C(=O)N(C2CCC(=O)NC2=O)C3=O)c(F)cc1Nc1ncc2c(n1)N(C1CCCC1)CC(F)(F)C(=O)N2C` (centres unmarked) [Compound 124, 4-((9-cyclopentyl-7,7-difluoro-5-methyl-6-oxo-6,7,8,9-tetrahydro-5H-pyrimido[4,5-b][1,4]diazepin-2-yl)amino)-N-((1-(2-(2-((2-(2,6-dioxopiperidin-3-yl)-1,3-dioxoisoindolin-4-yl)amino)ethoxy)ethyl)pyrrolidin-2-yl)methyl)-2-fluoro-5-methoxybenzamide], the half-maximal degradation concentration (DC50) is no more than 500 nM and the Dmax lay within 60 to 80%.
The matching figures for `COc1cc(C(=O)NCC2CCCN(CCOCCNc3cccc4c3C(=O)N(C3CCC(=O)NC3=O)C4=O)C2)c(F)cc1Nc1ncc2c(n1)N(C1CCCC1)CC(F)(F)C(=O)N2C` (centres unmarked) [Compound 125, 4-((9-cyclopentyl-7,7-difluoro-5-methyl-6-oxo-6,7,8,9-tetrahydro-5H-pyrimido[4,5-b][1,4]diazepin-2-yl)amino)-N-((1-(2-(2-((2-(2,6-dioxopiperidin-3-yl)-1,3-dioxoisoindolin-4-yl)amino)ethoxy)ethyl)piperidin-3-yl)methyl)-2-fluoro-5-methoxybenzamide]: no more than 50 nM and no less than 80%.
For the compound `COc1cc(C(=O)NCC2CCCCN2CCOCCNc2cccc3c2C(=O)N(C2CCC(=O)NC2=O)C3=O)c(F)cc1Nc1ncc2c(n1)N(C1CCCC1)CC(F)(F)C(=O)N2C` (centres unmarked) [Compound 126, 4-((9-cyclopentyl-7,7-difluoro-5-methyl-6-oxo-6,7,8,9-tetrahydro-5H-pyrimido[4,5-b][1,4]diazepin-2-yl)amino)-N-((1-(2-(2-((2-(2,6-dioxopiperidin-3-yl)-1,3-dioxoisoindolin-4-yl)amino)ethoxy)ethyl)piperidin-2-yl)methyl)-2-fluoro-5-methoxybenzamide], the DC50 was no more than 500 nM and the Dmax is 60 to 80%.
The matching figures for `COc1cc(C(=O)NC2CCN(CCOCCNC(=O)COc3cccc4c3C(=O)N(C3CCC(=O)NC3=O)C4=O)C2)c(F)cc1Nc1ncc2c(n1)N(C1CCCC1)CC(F)(F)C(=O)N2C` (centres unmarked) [Compound 127, 4-((9-cyclopentyl-7,7-difluoro-5-methyl-6-oxo-6,7,8,9-tetrahydro-5H-pyrimido[4,5-b][1,4]diazepin-2-yl)amino)-N-(1-(2-(2-(2-((2-(2,6-dioxopiperidin-3-yl)-1,3-dioxoisoindolin-4-yl)oxy)acetamido)ethoxy)ethyl)pyrrolidin-3-yl)-2-fluoro-5-methoxybenzamide]: no more than 500 nM and 60 to 80%.
The matching figures for `COc1cc(C(=O)NC2CCN(C(=O)CCN3CCN(c4cccc5c4C(=O)N(C4CCC(=O)NC4=O)C5=O)CC3)CC2)ccc1Nc1ncc2c(n1)N(C1CCCC1)CC(F)(F)C(=O)N2C` (centres unmarked) [Compound 128, 4-((9-cyclopentyl-7,7-difluoro-5-methyl-6-oxo-6,7,8,9-tetrahydro-5H-pyrimido[4,5-b][1,4]diazepin-2-yl)amino)-N-(1-(3-(4-(2-(2,6-dioxopiperidin-3-yl)-1,3-dioxoisoindolin-4-yl)piperazin-1-yl)propanoyl)piperidin-4-yl)-3-methoxybenzamide]: no more than 50 nM and no less than 80%.
The matching figures for `CN1C(=O)C(F)(F)CN(C2CCCC2)c2nc(Nc3ccc(C(=O)NC4CCN(C(=O)CCN5CCN(c6cccc7c6C(=O)N(C6CCC(=O)NC6=O)C7=O)CC5)CC4)cc3)ncc21` (centres unmarked) [Compound 129, 4-((9-cyclopentyl-7,7-difluoro-5-methyl-6-oxo-6,7,8,9-tetrahydro-5H-pyrimido[4,5-b][1,4]diazepin-2-yl)amino)-N-(1-(3-(4-(2-(2,6-dioxopiperidin-3-yl)-1,3-dioxoisoindolin-4-yl)piperazin-1-yl)propanoyl)piperidin-4-yl)benzamide]: no more than 50 nM and no less than 80%.
For `COc1cc(C(=O)N[C@H]2CCN(C(=O)CN3CCN(c4cccc5c4C(=O)N(C4CCC(=O)NC4=O)C5=O)CC3)C2)c(F)cc1Nc1ncc2c(n1)N(C1CCCC1)CC(F)(F)C(=O)N2C` (some centres unmarked) [Compound 130], the DC50 is no more than 50 nM and the Dmax is no less than 80%.
On to `COc1cc(C(=O)N[C@H]2CCN(C(=O)CCN3CCN(c4cccc5c4C(=O)N(C4CCC(=O)NC4=O)C5=O)CC3)C2)c(F)cc1Nc1ncc2c(n1)N(C1CCCC1)CC(F)(F)C(=O)N2C` (stereo partly drawn) [Compound 131, 4-((9-cyclopentyl-7,7-difluoro-5-methyl-6-oxo-6,7,8,9-tetrahydro-5H-pyrimido[4,5-b][1,4]diazepin-2-yl)amino)-N-((3S)-1-(3-(4-(2-(2,6-dioxopiperidin-3-yl)-1,3-dioxoisoindolin-4-yl)piperazin-1-yl)propanoyl)pyrrolidin-3-yl)-2-fluoro-5-methoxybenzamide], for which the 50% degradation concentration (DC50) was no more than 50 nM and the Dmax was no less than 80%.
For the compound `COc1cc(C(=O)N[C@@H]2CCN(C(=O)CCN3CCN(c4cccc5c4C(=O)N(C4CCC(=O)NC4=O)C5=O)CC3)C2)c(F)cc1Nc1ncc2c(n1)N(C1CCCC1)CC(F)(F)C(=O)N2C` (stereo partly drawn) [Compound 132, 4-((9-cyclopentyl-7,7-difluoro-5-methyl-6-oxo-6,7,8,9-tetrahydro-5H-pyrimido[4,5-b][1,4]diazepin-2-yl)amino)-N-((3R)-1-(3-(4-(2-(2,6-dioxopiperidin-3-yl)-1,3-dioxoisoindolin-4-yl)piperazin-1-yl)propanoyl)pyrrolidin-3-yl)-2-fluoro-5-methoxybenzamide], the DC50 was no more than 50 nM and the maximal degradation (Dmax) was no less than 80%.
The matching figures for `COc1cc(C(=O)N[C@@H]2CCN(C(=O)CCCN3CCN(c4cccc5c4C(=O)N(C4CCC(=O)NC4=O)C5=O)CC3)C2)c(F)cc1Nc1ncc2c(n1)N(C1CCCC1)CC(F)(F)C(=O)N2C` (stereo partly drawn) [Compound 133, 4-((9-cyclopentyl-7,7-difluoro-5-methyl-6-oxo-6,7,8,9-tetrahydro-5H-pyrimido[4,5-b][1,4]diazepin-2-yl)amino)-N-((3R)-1-(4-(4-(2-(2,6-dioxopiperidin-3-yl)-1,3-dioxoisoindolin-4-yl)piperazin-1-yl)butanoyl)pyrrolidin-3-yl)-2-fluoro-5-methoxybenzamide]: no more than 50 nM and no less than 80%.
As to `COc1cc(C(=O)N[C@@H]2CCN(C(=O)CCCCN3CCN(c4cccc5c4C(=O)N(C4CCC(=O)NC4=O)C5=O)CC3)C2)c(F)cc1Nc1ncc2c(n1)N(C1CCCC1)CC(F)(F)C(=O)N2C` (stereo partly drawn) [Compound 134, 4-((9-cyclopentyl-7,7-difluoro-5-methyl-6-oxo-6,7,8,9-tetrahydro-5H-pyrimido[4,5-b][1,4]diazepin-2-yl)amino)-N-((3R)-1-(5-(4-(2-(2,6-dioxopiperidin-3-yl)-1,3-dioxoisoindolin-4-yl)piperazin-1-yl)pentanoyl)pyrrolidin-3-yl)-2-fluoro-5-methoxybenzamide], the DC50 is no more than 50 nM and the maximal degradation (Dmax) is no less than 80%.

For the origin of these results see patent US20230372498A1, “PLK1 SELECTIVE DEGRADATION INDUCING COMPOUND” (UPPTHERA, priority 2020, published 2023).
